In publication PMC7979765, “trans-Translation inhibitors bind to a novel site on the ribosome and clear Neisseria gonorrhoeae in vivo” (Nature Communications, 2021):
Where “and” joins values, the source holds several entries; their conditions need not be identical. Equal values may be shown once. Read-outs that look alike come from different tables or passages of the source.

Key:
[1] = tested on: Human primary hepatocytes; experiment: Multiplexed cytotoxicity assay (nuclei, ROS, TMRE); type: cell-based
Protocol: Multiplexed cytotoxicity assay — Human primary hepatocytes were grown on collagen I coated optical plates, cultured in hepatocytes culture media in a humidified 5% CO2 atmosphere at 37 °C. Cells were incubated in the presence of MBX-4132 at 10 concentrations starting a 100 µM and serially diluted 3.16-fold for 24 h at 37 °C, incubated for 30 min with multiplexed fluorescent dyes (Hoescht, 6-carboxy-2’,7’-dichlorodihydrofluorescein diazetat, and TMRE) and imaged to allow visualization of nuclei, reactive oxygen species generation, and mitochondrial oxidation. A >3.5-fold induction of ROS was considered consistent with formation of ROS and a >2-fold change in TMRE signal indicated an increase or decrease in mitochondrial membrane potential.

[2] = target: T1, Cholinesterase, Acetyl, ACES (Homo sapiens, UniProt P22303); experiment: Receptor Profiling 104010; type: biochemical
T1 construct: Eurofins Discovery Services (contract assay) 104010
Protocol: (§1) Several in vitro selectivity assays were performed at Eurofins Discovery Services using established methods and controls that behaved as expected (Supplementary Tables 5 and 6). […] For receptor panel profiling, MBX-4132 was evaluated at 10 μM and activity of >50% (agonist or antagonist; note that negative % inhibition indicates agonism) was scored as active.

Cycloogenase COX-1 = target: T2, Cycloogenase COX-1 (Homo sapiens, UniProt P23219); experiment: Receptor Profiling 116030; type: biochemical
T2 construct: Eurofins Discovery Services (contract assay) 116030
Protocol: as §1

[3] = Serum protein binding, human; type: in vitro ADME; conditions: read-out: Serum binding (% bound) Human (converted)
Protocol: Serum protein binding was determined using an equilibrium dialysis method as described. The amount of compound in each chamber (buffer and serum) was measured using methods for reverse-phase liquid chromatography/mass spectroscopy methods that were customized for each compound.

[4] = tested on: N. gonorrhoeae strain H041; experiment: In vivo efficacy in the gonorrhea mouse model; conditions: for mouse cfu: individual mice, 2.00E+01 = no CFU/mL recovered, limit of detection
[5] = Liver microsome stability, dog; type: in vitro ADME; conditions: for half-life: dog, liver microsomes
Protocol: To examine potential for first-pass metabolism of analogs in the liver, the stability of analogs in the presence of liver microsome preparations (Eurofins Discovery for human, dog and rat; Xenotech for mouse) was measured using the method of Kuhnz, et al.[50]. for murine studies and Oback for the dog, human and rat studies. The amount of parent compound remaining after incubation with microsomes in the presence of NADPH over a 30 min time range was measured using a reverse-phase liquid chromatography/mass spectroscopy method that was customized for each compound. Half-lives were calculated using linear regression analysis of several time points.

[6] = target: T3, Protein Tyrosine Kinase, LCK (Homo sapiens, UniProt P06239); experiment: Receptor Profiling 176020; type: biochemical
T3 construct: purchased Eurofins Discovery Services (Panlabs safety panel)
Protocol: as §1

Histamine H2 = target: T4, Histamine H2 (Homo sapiens, UniProt P25021); experiment: Receptor Profiling 239710; type: binding
T4 construct: purchased Eurofins Discovery Services (Panlabs safety panel)
Protocol: as §1

Cycloogenase COX-2 = target: T5, Cycloogenase COX-2 (Homo sapiens, UniProt P35354); experiment: Receptor Profiling 118030; type: biochemical
T5 construct: Eurofins Discovery Services (contract assay) 118030
Protocol: as §1

HepG2 cells = experiment: Mitochondrial toxicity assay, glucose vs galactose; type: cell-based; conditions: for % viability: HepG2, replicates
Protocol: (§2) Mitochondrial toxicity assay — HepG2 cells (ATCC) were seeded and cultured in media containing either glucose or galactose overnight. Test compounds were added at 8 concentrations ([…] from 100 µM to 30 nM) and incubated with the cells for 24 h. Cell viability was measured by the alamarBlue method. The data in Supplementary Table 7 are inconsistent with MBX-4132 disrupting mitochondrial metabolic processes. Assays were performed at Eurofins Cerep Panlabs.

[7] = Mitochondrial toxicity assay, glucose vs galactose; type: cell-based; conditions: human, HepG2; for viability at 24 h, 100 µM: Conc. (μM) 1.00E-04; for viability at 24 h, 3 µM: Conc. (μM) 3.00E-06
Protocol: as §2

Sodium Channel, Site 2 = experiment: Receptor Profiling 279510; type: binding, rat; conditions: 10 μM
Protocol: as §1

Dopamine D1 = target: T6, Dopamine D1 (Homo sapiens, UniProt P21728); experiment: Receptor Profiling 219500; type: binding
T6 construct: purchased Eurofins Discovery Services (Panlabs safety panel)
Protocol: as §1

[8] = target: T7, Serotonin (5-hydroxytryptamine) 5-HT2A (Homo sapiens, UniProt P28223); experiment: Receptor Profiling 271650; type: binding
T7 construct: purchased Eurofins Discovery Services (Panlabs safety panel)
Protocol: as §1

Dopamine D2s = target: T8, Dopamine D2s (Homo sapiens, UniProt P14416); experiment: Receptor Profiling 219700; type: binding
T8 construct: purchased Eurofins Discovery Services (Panlabs safety panel)
Protocol: as §1

[9] = target: T9, Transporter, Dopamine (DAT) (Homo sapiens, UniProt Q01959); experiment: Receptor Profiling 220320; type: binding
T9 construct: Eurofins Discovery Services (contract assay) 220320
Protocol: as §1

Opiate Delta1 (OP1, DOP) = target: T10, Opiate Delta1 (OP1, DOP) (Homo sapiens, UniProt P41143); experiment: Receptor Profiling 260130; type: binding
T10 construct: purchased Eurofins Discovery Services (Panlabs safety panel)
Protocol: as §1

[10] = HepG2 cells, Galactcose, read-out: Mean % viability
[11] = HepG2 cells, Galactcose, replicates, read-out: % viability
[12] = HepG2 cells, Glucose, read-out: Mean % viability
[13] = HepG2 cells, Glucose, replicates, read-out: % viability

T3 sequence (P06239 whole entry): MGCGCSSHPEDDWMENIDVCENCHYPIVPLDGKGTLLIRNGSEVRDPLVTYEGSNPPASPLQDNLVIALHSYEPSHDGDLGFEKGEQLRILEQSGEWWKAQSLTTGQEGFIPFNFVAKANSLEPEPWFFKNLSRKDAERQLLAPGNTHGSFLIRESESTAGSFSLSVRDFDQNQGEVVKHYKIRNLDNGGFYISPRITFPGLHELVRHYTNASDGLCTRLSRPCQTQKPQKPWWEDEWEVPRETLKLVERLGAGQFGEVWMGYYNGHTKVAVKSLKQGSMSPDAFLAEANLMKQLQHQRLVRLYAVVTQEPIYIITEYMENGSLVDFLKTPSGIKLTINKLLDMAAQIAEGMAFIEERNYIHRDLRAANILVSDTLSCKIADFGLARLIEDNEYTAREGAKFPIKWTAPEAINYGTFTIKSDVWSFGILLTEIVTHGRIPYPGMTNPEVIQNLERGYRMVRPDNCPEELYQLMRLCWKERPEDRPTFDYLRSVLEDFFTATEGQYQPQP
T7 sequence (P28223 whole entry): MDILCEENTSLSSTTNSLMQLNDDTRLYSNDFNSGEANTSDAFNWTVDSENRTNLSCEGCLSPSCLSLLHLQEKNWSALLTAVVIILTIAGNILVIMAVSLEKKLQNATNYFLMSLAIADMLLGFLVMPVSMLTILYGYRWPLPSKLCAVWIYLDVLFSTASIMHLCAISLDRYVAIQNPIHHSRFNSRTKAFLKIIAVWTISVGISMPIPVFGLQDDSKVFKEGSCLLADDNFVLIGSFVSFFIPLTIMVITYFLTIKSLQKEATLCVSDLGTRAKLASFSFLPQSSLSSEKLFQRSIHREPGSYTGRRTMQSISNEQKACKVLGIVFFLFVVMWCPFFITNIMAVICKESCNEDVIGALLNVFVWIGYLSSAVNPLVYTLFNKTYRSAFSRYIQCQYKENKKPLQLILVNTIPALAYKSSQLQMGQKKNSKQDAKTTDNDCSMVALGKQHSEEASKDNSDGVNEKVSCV
T10 sequence (P41143 whole entry): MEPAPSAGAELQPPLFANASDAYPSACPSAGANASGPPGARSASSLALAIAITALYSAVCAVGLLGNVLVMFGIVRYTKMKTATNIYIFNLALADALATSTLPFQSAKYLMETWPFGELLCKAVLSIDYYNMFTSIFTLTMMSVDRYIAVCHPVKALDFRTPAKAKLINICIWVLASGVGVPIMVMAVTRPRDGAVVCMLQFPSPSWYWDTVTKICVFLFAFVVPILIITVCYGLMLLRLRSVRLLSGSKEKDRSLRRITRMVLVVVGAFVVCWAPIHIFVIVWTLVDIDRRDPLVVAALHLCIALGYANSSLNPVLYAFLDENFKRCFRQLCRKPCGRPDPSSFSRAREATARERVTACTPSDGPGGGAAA
T8 sequence (P14416 1-414 isoform P14416-2): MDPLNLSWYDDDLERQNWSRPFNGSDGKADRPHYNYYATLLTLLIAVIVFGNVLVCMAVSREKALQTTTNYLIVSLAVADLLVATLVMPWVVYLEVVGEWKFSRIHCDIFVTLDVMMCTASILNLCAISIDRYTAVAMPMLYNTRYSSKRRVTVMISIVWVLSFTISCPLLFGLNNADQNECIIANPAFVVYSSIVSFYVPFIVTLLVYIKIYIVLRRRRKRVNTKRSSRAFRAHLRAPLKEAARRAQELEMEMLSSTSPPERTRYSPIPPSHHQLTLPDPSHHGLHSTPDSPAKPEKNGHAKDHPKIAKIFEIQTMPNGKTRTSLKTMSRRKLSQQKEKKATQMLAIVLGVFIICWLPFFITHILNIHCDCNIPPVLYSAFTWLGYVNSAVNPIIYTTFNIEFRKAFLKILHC
T6 sequence (P21728 whole entry): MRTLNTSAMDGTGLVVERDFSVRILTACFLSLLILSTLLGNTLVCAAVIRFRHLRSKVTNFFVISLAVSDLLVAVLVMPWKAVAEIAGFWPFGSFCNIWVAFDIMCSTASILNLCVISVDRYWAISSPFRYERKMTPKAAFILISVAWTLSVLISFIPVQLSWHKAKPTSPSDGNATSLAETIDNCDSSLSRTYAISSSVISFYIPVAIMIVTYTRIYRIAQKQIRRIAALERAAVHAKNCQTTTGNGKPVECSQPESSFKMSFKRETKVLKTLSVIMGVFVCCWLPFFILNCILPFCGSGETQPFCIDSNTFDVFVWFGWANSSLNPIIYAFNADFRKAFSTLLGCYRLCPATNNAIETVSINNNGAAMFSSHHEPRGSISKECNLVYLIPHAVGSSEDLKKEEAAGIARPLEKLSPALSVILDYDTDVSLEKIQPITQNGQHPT
T2 sequence (P23219 24-599): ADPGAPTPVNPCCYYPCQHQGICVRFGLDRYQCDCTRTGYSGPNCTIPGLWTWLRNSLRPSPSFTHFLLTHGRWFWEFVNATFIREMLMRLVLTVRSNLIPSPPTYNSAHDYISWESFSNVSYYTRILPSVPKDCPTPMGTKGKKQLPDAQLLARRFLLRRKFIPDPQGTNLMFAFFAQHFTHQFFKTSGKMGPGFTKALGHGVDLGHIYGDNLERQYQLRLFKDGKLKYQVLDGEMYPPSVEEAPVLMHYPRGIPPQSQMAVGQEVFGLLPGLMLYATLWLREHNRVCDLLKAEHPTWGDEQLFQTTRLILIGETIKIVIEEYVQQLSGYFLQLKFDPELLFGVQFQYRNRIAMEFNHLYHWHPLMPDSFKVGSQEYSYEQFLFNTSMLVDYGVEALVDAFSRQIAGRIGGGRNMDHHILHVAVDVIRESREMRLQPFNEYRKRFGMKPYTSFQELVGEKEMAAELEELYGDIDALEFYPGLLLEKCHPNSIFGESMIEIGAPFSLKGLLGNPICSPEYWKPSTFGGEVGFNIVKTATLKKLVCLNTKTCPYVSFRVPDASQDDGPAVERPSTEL
T1 sequence (P22303 32-614): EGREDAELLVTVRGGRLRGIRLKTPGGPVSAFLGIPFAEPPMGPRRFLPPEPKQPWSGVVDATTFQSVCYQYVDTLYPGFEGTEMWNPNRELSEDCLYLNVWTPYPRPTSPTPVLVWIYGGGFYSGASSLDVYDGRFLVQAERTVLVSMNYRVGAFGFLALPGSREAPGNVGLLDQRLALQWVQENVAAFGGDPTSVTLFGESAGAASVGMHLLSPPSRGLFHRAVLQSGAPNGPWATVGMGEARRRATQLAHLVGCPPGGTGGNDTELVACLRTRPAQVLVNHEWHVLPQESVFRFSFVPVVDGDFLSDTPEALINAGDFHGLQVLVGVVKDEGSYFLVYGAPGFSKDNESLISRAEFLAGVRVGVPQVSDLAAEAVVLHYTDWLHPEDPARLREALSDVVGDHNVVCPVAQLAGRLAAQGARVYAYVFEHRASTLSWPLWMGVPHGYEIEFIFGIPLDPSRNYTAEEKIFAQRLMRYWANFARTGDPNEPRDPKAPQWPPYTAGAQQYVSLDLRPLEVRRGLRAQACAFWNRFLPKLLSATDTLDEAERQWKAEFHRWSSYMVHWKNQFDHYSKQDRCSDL
T5 sequence (P35354 18-604): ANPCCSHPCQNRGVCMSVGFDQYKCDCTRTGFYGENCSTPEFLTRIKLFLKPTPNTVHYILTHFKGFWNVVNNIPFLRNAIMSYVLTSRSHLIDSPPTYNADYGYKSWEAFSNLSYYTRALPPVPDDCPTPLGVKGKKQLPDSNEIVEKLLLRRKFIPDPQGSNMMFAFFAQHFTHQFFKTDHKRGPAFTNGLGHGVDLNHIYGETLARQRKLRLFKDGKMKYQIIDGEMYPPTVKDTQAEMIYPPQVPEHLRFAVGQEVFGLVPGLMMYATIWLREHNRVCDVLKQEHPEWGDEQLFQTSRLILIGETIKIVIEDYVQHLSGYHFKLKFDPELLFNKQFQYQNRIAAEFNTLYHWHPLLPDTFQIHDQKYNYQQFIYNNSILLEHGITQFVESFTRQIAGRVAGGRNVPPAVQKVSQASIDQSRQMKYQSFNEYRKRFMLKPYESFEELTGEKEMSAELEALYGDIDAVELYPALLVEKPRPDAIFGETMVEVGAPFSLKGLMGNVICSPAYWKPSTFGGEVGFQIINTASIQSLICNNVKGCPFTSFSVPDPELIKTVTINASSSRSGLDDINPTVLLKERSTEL
T9 sequence (Q01959 whole entry): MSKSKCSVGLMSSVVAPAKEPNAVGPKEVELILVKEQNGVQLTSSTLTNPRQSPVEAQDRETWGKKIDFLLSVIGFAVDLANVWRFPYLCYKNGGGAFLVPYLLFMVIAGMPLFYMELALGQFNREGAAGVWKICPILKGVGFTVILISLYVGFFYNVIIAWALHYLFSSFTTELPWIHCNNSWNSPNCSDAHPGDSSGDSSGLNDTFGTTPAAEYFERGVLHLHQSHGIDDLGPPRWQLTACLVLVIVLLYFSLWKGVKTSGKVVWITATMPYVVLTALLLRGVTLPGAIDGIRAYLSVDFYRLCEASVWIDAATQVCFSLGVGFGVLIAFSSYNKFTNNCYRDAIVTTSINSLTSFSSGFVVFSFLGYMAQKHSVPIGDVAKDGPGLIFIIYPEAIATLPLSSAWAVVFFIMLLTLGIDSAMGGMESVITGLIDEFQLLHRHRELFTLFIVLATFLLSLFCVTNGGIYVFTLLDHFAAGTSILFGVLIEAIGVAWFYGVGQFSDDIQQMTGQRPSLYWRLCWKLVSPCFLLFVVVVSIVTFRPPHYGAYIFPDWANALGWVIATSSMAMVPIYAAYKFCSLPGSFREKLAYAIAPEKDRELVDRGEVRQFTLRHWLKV
T4 sequence (P25021 whole entry): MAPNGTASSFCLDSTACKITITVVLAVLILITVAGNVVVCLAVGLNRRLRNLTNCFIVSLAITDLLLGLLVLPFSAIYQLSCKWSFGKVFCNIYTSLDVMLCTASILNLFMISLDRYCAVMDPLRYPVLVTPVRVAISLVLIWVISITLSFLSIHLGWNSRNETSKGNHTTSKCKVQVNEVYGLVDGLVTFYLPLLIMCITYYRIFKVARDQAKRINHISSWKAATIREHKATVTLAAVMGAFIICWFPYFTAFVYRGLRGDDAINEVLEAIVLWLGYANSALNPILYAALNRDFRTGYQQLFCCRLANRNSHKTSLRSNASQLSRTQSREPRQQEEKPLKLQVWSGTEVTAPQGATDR

O=C(Nc1nnc(-c2ccc(F)cc2)o1)N1CCc2ccccc2C1 [MBX-4132]
Attached live cells (%) ([1]; 1.00E+00 μM, 24 h): 106.3%
Attached live cells (%) ([1]; 1.00E+00 μM, replicates): 108.6% and 104.0%
Attached live cells (%) ([1]; 1.00E+01 μM, 24 h): 97.7%
Attached live cells (%) ([1]; 1.00E+01 μM, replicates): 104.3% and 91.1%
Attached live cells (%) ([1]; 1.00E+02 μM, 24 h): 69.6%
Attached live cells (%) ([1]; 1.00E+02 μM, replicates): 78.3% and 60.9%
Attached live cells (%) ([1]; 1.00E-01 μM, 24 h): 96.7%
Attached live cells (%) ([1]; 1.00E-01 μM, replicates): 101.6% and 91.8%
Attached live cells (%) ([1]; 1.01E-02 μM, 24 h): 109.5%
Attached live cells (%) ([1]; 1.01E-02 μM, replicates): 115.4% and 103.6%
Attached live cells (%) ([1]; 3.16E+01 μM, 24 h): 89.5%
Attached live cells (%) ([1]; 3.16E+01 μM, replicates): 92.0% and 87.0%
Attached live cells (%) ([1]; 3.17E+00 μM, 24 h): 99.6%
Attached live cells (%) ([1]; 3.17E+00 μM, replicates): 103.9% and 95.3%
Attached live cells (%) ([1]; 3.17E-01 μM, 24 h): 114.0%
Attached live cells (%) ([1]; 3.17E-01 μM, replicates): 124.2% and 103.8%
Attached live cells (%) ([1]; 3.18E-02 μM, 24 h): 97.5%
Attached live cells (%) ([1]; 3.18E-02 μM, replicates): 106.1% and 88.9%
Attached live cells (%) ([1]; 3.18E-03 μM, 24 h): 105.6%
Attached live cells (%) ([1]; 3.18E-03 μM, replicates): 110.9% and 100.3%
effect on mitochondrial membrane polarity (in words) ([1]; high concentrations, human hepatocytes): no effect
inhibition at 10 µM [2]: 6%
inhibition at 10 µM (Cycloogenase COX-1): 8%
fraction unbound ([3]; Average Value, Eurofins): 0.009
fraction unbound ([3]; Replicate 1/2, Eurofins): 0.017 and 0.002
fraction unbound ([3]; Reported value, Eurofins): 0.01
mouse cfu ([4]; Day 5, MBX-4132 10 MPK, 10 mg/kg): 2.00E+01 CFU/mL (14×) and 4.20E+02 CFU/mL and 2.61E+03 CFU/mL and 2.38E+03 CFU/mL and 3.50E+05 CFU/mL and 1.00E+06 CFU/mL and 2.60E+02 CFU/mL
mouse cfu ([4]; Day 6, MBX-4132 10 MPK, 10 mg/kg): 2.00E+01 CFU/mL (16×) and 1.46E+03 CFU/mL and 2.08E+04 CFU/mL and 3.12E+05 CFU/mL and 7.20E+02 CFU/mL
mouse cfu ([4]; Day 7, MBX-4132 10 MPK, 10 mg/kg): 2.00E+01 CFU/mL (18×) and 1.01E+04 CFU/mL and 1.16E+04 CFU/mL
mouse cfu ([4]; Day 8, MBX-4132 10 MPK, 10 mg/kg): 2.00E+01 CFU/mL (18×) and 2.20E+02 CFU/mL and 7.00E+02 CFU/mL
mouse cfu ([4]; Day -1, MBX-4132 10 MPK, 10 mg/kg): 2.16E+06 CFU/mL and 4.97E+06 CFU/mL and 1.86E+05 CFU/mL and 1.04E+06 CFU/mL and 6.26E+06 CFU/mL and 2.02E+05 CFU/mL and 3.50E+04 CFU/mL and 5.46E+03 CFU/mL and 1.66E+05 CFU/mL and 6.46E+05 CFU/mL and 2.23E+05 CFU/mL and 2.90E+05 CFU/mL and 2.17E+05 CFU/mL and 6.58E+03 CFU/mL and 2.34E+06 CFU/mL and 3.20E+02 CFU/mL and 3.63E+06 CFU/mL and 4.88E+05 CFU/mL and 3.45E+06 CFU/mL and 2.43E+06 CFU/mL
mice cleared per day: cleared flag ([4]; MBX-4132 10 MPK, individual mice 1-20, 1 = cleared on the day, 0 = not cleared, 10 mg/kg): 1 and 0
Day (mice cleared per day: day on which the mouse was cleared) ([4]; MBX-4132 10 MPK, individual mice 1-20, Day 8 with flag 0 = not cleared, 10 mg/kg): 3 and 8 and 6 and 5 and 1 and 4 and 2
mice completely cleared of infection ([4]; single oral dose 10 mg/kg, by 6 days, N. gonorrhoeae H041): 80%
Microsomal stability (t½, min) Dog ([5]; Replicate 1/2, Eurofins): >>60 min
half-life ([5]; Average Value, Eurofins, read-out: Microsomal stability (t½, min) Dog): > 60 min
half-life ([5]; Replicate 1/2, Eurofins, read-out: Microsomal stability (t½, min) Dog): > 60 min
half-life ([5]; Reported value, Eurofins, read-out: Microsomal stability (t½, min) Dog): > 120 min
half-life ([5]; read-out: Microsomal Stability (t1/2; min) Dog): > 120 min
inhibition at 10 µM [6]: 29%
inhibition at 10 µM (Histamine H2): -7%
inhibition at 10 µM (Cycloogenase COX-2): 10%
% viability (HepG2 cells; Galactcose, Conc. (μM) 1.00E-04): 62.7%
% viability (HepG2 cells; Galactcose, Conc. (μM) 3.00E-05): 99.1%
% viability (HepG2 cells; Galactcose, Conc. (μM) 3.00E-06): 94.2%
% viability (HepG2 cells; Glucose, Conc. (μM) 1.00E-04): 85.6%
% viability (HepG2 cells; Glucose, Conc. (μM) 1.00E-05): 107.5%
% viability (HepG2 cells; Glucose, Conc. (μM) 3.00E-05): 106.5%
% viability (HepG2 cells; Glucose, Conc. (μM) 3.00E-06): 103.0%
differential toxicity glucose vs galactose (in words) (HepG2 cells; HepG2 cells): did not induce differential toxicity
viability at 24 h, 1e-05 μM ([7]; Glucose, Conc. (μM) 1.00E-05, replicates): 108%
viability at 24 h, 100 µM [7, 10]: 64%
viability at 24 h, 100 µM [7, 11]: 65.3%
viability at 24 h, 10 µM ([7]; HepG2 cells, Galactcose, Conc. (μM) 1.00E-05): 95.4%
viability at 24 h, 3 µM [7, 10]: 94.1%
viability at 24 h, 3 µM [7, 11]: 93.9%
viability at 24 h, 30 µM ([7]; HepG2 cells, Galactose, Conc. (μM) 3.00E-05, 24 h): 96.8%
viability at 24 h, 100 µM [7, 12]: 81.9%
viability at 24 h, 100 µM [7, 13]: 78.3%
viability at 24 h, 10 µM ([7]; HepG2 cells, Glucose, Conc. (μM) 1.00E-05): 108%
viability at 24 h, 3 µM [7, 12]: 110%
viability at 24 h, 3 µM [7, 13]: 116%
% inhibition (Sodium Channel, Site 2): 21%
inhibition at 10 µM (Dopamine D1): 26%
inhibition at 10 µM [8]: 18%
inhibition at 10 µM (Dopamine D2s): 21%
inhibition at 10 µM [9]: 3%
inhibition at 10 µM (Opiate Delta1 (OP1, DOP)): 5%
